Test results as given in ChEMBL document CHEMBL4765298, “Substituted oxindol-3-ylidenes as AMP-activated protein kinase (AMPK) inhibitors” (Eur J Med Chem, 2020).
The source made the active and inactive calls. The calls are words filed in the database; no cut-off is given here.

Legend:
[1] = target: 5'-AMP-activated protein kinase catalytic subunit alpha-2 (Homo sapiens) (UniProt P54646); experiment: Inhibition of recombinant human His6-tagged AMPK alpha2 at 10 uM using ULight CRBtide as substrate incubated for 1 hr followed by substrate addition and measured after 1 hr by TR-FRET assay relative to control; conditions: time 2.0 hrs
5'-AMP-activated protein kinase catalytic subunit alpha-2 (Homo sapiens), sequence (P54646 whole entry, looked up, the tested form may be a part): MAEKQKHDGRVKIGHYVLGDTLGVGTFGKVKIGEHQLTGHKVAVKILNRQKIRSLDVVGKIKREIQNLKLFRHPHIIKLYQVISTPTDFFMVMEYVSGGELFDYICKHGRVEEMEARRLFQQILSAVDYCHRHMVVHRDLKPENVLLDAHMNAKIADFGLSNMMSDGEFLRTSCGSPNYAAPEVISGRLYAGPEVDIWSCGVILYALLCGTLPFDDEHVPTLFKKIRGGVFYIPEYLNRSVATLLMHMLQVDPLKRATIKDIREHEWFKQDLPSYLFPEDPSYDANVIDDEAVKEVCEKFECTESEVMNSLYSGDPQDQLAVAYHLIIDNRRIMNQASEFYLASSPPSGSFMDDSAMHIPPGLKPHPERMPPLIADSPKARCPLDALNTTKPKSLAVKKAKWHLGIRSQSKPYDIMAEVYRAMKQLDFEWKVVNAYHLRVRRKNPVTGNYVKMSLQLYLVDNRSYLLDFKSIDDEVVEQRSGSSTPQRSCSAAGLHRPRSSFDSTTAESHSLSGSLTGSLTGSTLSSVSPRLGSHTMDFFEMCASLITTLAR

[2] = system: K562; experiment: Cytotoxicity against human K562 cells assessed as reduction in cell viability incubated for 72 hrs by MTS assay; format: cell-based; conditions: K562, 72 h
[3] = Cytotoxicity against human K562 cells assessed as reduction in cell viability at 50 uM incubated for 24 hrs by cell-titer glo assay relative to control; format: cell-based; conditions: read-out: INH
[4] = Cytotoxicity against human K562 cells assessed as reduction in cell viability at 50 uM incubated for 24 hrs by celltox-green assay relative to control; format: cell-based; conditions: read-out: INH
[5] = system: K562; experiment: Cytotoxicity against human K562 cells assessed as reduction in cell viability incubated for 24 hrs by cell-titer glo assay; format: cell-based; conditions: K562, 24 h
[6] = system: K562; experiment: Cytotoxicity against human K562 cells assessed as reduction in cell viability incubated for 24 hrs by celltox-green assay; format: cell-based; conditions: K562, 24 h
[7] = system: K562; experiment: Cytotoxicity against human K562 cells assessed as reduction in cell viability incubated for 48 hrs by celltox-green assay; format: cell-based; conditions: K562, 48 h
[8] = Cytotoxicity against human K562 cells assessed as reduction in cell viability at 50 uM incubated for 72 hrs by MTS assay relative to control; format: cell-based; conditions: read-out: INH
[9] = Cytotoxicity against human K562 cells assessed as reduction in cell viability at 50 uM incubated for 48 hrs by celltox-green assay relative to control; format: cell-based; conditions: read-out: INH
[10] = target: 5'-AMP-activated protein kinase catalytic subunit alpha-1 (Homo sapiens) (UniProt Q13131); experiment: Inhibition of recombinant human His6-tagged AMPK alpha1 at 20 uM using ULight CRBtide as substrate incubated for 1 hr followed by substrate addition and measured after 1 hr by TR-FRET assay relative to control; conditions: time 2.0 hrs
5'-AMP-activated protein kinase catalytic subunit alpha-1 (Homo sapiens), sequence (Q13131 whole entry, looked up, the tested form may be a part): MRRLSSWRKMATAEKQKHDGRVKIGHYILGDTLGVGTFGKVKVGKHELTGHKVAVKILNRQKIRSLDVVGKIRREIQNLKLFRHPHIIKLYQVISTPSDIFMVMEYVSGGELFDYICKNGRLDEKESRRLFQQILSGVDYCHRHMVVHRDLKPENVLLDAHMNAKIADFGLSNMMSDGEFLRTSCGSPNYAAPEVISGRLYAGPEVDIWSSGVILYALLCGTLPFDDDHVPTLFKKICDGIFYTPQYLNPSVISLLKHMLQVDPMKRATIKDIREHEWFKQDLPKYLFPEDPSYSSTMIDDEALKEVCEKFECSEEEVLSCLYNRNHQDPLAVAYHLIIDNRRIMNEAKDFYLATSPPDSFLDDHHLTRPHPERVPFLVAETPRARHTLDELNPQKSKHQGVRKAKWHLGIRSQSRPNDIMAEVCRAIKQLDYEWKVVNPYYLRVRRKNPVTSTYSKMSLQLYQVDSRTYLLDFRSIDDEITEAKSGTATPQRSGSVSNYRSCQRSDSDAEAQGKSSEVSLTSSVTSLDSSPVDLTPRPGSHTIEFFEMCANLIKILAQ

[11] = Cytotoxicity against human K562 cells assessed as reduction in cell viability at 1.56 uM incubated for 72 hrs by MTS assay relative to control; format: cell-based; conditions: read-out: INH
[12] = system: K562; experiment: Inhibition of AMPK in human K562 cells assessed as p-ACC (Ser79) level at 5 uM in glucose free medium and in presence of 2-Deoxy-D-glucose measured after 3 hrs by ELISA relative to control; format: cell-based
[13] = system: K562; experiment: Inhibition of AMPK in human K562 cells assessed as p-ACC (Ser79) level at 3.125 to […] in glucose free medium and in presence of 2-Deoxy-D-glucose measured after 3 hrs by ELISA; format: cell-based; conditions: dose 3.125-12.5 µM
[14] = target: 5'-AMP-activated protein kinase catalytic subunit alpha-1 (Homo sapiens) (UniProt Q13131); experiment: Inhibition of wild-type human partial length AMPK alpha1 (M1 to E306 residues) expressed in bacterial expression system at 100 nM by Kinomescan method relative to control
[15] = target: 5'-AMP-activated protein kinase catalytic subunit alpha-2 (Homo sapiens) (UniProt P54646); experiment: Inhibition of wild-type human partial length AMPK alpha2 (M1 to E306 residues) expressed in bacterial expression system at 100 nM by Kinomescan method relative to control
[16] = target: Tyrosine-protein kinase BTK (Homo sapiens) (UniProt Q06187); experiment: Inhibition of wild-type human full length BTK (M1 to S659 residues) expressed in mammalian expression system at 100 nM by Kinomescan method relative to control
[17] = target: Macrophage colony-stimulating factor 1 receptor (Homo sapiens) (UniProt P07333); experiment: Inhibition of wild-type human partial length CSF1R (I564 to S939 residues) expressed in bacterial expression system at 100 nM by Kinomescan method relative to control
Macrophage colony-stimulating factor 1 receptor (Homo sapiens), sequence (P07333 whole entry, the tested form may be a part): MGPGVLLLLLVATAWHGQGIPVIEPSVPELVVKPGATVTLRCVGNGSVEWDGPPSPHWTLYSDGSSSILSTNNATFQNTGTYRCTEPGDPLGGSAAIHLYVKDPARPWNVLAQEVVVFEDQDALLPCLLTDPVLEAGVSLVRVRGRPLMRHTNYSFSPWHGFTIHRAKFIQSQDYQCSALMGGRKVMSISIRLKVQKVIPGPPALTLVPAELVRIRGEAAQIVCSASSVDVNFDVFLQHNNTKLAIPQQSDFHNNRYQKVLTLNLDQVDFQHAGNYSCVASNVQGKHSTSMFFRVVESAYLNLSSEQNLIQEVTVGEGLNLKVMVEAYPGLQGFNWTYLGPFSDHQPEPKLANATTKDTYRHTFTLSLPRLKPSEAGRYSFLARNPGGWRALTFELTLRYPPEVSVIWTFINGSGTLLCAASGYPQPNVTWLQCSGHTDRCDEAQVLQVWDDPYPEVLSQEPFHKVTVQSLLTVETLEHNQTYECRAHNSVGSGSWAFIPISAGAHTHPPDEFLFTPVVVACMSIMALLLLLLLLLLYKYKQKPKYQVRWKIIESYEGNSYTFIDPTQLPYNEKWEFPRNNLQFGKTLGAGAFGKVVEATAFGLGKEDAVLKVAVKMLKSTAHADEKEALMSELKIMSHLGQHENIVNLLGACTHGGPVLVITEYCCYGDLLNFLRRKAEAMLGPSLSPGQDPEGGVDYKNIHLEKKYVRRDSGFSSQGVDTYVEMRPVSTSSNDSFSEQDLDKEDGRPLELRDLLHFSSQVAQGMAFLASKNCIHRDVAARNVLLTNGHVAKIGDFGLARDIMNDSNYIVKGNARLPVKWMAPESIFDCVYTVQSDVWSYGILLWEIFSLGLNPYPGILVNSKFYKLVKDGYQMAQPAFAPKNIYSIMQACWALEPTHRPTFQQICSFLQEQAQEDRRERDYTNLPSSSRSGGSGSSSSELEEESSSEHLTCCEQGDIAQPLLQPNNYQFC

[18] = target: Macrophage colony-stimulating factor 1 receptor (Homo sapiens) (UniProt P07333); experiment: Inhibition of wild-type human partial length autoinhibited CSF1R (Y538 to S939 residues) expressed in mammalian expression system at 100 nM by Kinomescan method relative to control
[19] = target: Tyrosine-protein kinase JAK1 (Homo sapiens) (UniProt P23458); experiment: Inhibition of wild-type human partial length JAK1 JH2 pseudokinase domain (R537 to D855 residues) expressed in mammalian expression system at 100 nM by Kinomescan method relative to control
Tyrosine-protein kinase JAK1 (Homo sapiens), sequence (P23458 whole entry, the tested form may be a part): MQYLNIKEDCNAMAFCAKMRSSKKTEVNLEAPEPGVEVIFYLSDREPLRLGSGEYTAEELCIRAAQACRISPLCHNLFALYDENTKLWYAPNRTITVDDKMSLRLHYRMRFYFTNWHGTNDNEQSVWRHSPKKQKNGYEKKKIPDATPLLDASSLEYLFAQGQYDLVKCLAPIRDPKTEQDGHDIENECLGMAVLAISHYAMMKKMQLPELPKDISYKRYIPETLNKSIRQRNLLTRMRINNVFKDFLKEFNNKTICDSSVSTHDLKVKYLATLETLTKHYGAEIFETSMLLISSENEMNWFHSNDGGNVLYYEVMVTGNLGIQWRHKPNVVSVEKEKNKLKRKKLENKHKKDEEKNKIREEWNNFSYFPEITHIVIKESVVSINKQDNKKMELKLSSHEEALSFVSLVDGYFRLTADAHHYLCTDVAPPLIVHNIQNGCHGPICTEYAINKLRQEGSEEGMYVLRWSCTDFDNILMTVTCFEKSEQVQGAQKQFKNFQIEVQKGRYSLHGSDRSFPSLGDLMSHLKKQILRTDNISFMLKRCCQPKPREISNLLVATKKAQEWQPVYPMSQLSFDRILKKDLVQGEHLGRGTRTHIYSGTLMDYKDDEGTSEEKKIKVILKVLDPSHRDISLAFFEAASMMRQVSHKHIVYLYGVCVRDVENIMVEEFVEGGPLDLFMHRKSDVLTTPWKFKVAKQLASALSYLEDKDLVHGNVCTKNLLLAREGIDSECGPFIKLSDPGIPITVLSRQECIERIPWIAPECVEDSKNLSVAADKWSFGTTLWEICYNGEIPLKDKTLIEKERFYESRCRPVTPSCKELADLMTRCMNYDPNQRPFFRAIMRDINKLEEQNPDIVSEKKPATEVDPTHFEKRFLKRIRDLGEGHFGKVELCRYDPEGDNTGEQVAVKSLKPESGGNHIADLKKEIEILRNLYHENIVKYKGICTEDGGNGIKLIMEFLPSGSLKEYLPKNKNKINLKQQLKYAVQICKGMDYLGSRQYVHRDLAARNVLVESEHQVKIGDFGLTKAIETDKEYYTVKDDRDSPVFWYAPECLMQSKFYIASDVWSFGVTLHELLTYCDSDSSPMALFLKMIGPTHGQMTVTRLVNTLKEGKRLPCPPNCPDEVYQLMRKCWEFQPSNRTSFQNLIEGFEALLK

[20] = target: Mast/stem cell growth factor receptor Kit (Homo sapiens) (UniProt P10721); experiment: Inhibition of wild-type human partial length autoinhibited KIT (Y545 to D952 residues) expressed in mammalian expression system at 100 nM by Kinomescan method relative to control
[21] = target: Vascular endothelial growth factor receptor 2 (Homo sapiens) (UniProt P35968); conditions: dose 100.0 nM
Vascular endothelial growth factor receptor 2 (Homo sapiens), sequence (P35968 whole entry): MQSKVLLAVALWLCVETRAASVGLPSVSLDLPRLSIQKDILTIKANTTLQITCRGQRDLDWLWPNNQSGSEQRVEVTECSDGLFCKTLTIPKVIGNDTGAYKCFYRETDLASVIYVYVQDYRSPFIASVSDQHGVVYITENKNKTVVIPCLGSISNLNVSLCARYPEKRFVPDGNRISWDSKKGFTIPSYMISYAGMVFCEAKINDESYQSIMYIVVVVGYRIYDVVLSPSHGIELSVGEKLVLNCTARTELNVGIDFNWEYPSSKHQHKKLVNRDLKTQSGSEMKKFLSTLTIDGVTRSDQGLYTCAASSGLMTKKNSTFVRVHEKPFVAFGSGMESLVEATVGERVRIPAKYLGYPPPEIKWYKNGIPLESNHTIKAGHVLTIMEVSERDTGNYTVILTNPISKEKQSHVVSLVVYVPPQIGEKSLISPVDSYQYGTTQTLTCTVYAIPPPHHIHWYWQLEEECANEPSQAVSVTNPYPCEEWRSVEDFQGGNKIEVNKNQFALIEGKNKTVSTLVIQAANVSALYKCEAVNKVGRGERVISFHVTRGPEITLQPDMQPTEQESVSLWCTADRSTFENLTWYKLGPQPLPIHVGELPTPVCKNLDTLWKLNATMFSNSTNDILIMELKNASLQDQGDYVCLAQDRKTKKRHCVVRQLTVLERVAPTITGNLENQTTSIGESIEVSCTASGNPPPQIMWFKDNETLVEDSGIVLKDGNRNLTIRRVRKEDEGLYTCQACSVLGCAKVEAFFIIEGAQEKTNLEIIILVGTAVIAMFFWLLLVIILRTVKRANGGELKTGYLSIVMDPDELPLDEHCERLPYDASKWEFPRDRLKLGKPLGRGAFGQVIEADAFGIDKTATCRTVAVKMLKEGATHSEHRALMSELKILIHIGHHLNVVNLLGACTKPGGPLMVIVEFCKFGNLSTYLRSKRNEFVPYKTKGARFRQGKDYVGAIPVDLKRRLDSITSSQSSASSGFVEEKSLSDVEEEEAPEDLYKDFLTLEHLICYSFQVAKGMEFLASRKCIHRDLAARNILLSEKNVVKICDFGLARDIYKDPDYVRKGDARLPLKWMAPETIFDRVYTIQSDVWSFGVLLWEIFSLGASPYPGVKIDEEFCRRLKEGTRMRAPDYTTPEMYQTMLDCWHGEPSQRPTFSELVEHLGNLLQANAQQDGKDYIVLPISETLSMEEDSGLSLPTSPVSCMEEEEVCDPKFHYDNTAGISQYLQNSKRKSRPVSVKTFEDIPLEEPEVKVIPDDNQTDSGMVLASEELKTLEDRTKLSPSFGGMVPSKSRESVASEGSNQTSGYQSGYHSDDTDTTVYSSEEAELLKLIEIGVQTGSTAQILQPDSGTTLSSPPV
Description: Inhibition of wild-type human partial length VEGFR2 (R787 to P1253 residues) expressed in mammalian expression system at 100 nM by Kinomescan method relative to control

[22] = Inhibition of recombinant human GST-tagged AMPK alpha1/beta1/gamma1 expressed in African green monkey COS7 cells assessed as reduction in AMPK beta 1 S108 phosphorylation incubated for 10 mins by [gamma 32-P]-ATP based radiometric scintillation counting analysis; format: cell-based
[23] = system: K562; experiment: Inhibition of AMPK in human K562 cells assessed as p-ACC (Ser79) level at 50 uM in glucose free medium and in presence of 2-Deoxy-D-glucose measured after 3 hrs by ELISA; format: cell-based
[24] = target: Vascular endothelial growth factor receptor 1 (Homo sapiens) (UniProt P17948); experiment: Inhibition of wild-type human partial length FLT1 (R781 to F1239 residues) expressed in bacterial expression system at 100 nM by Kinomescan method relative to control

CCN(CC)CCNC(=O)c1c(C)[nH]c(/C=C2\C(=O)Nc3cc(C)ccc32)c1C
inhibition [1]: 88%

Cc1[nH]c(/C=C2\C(=O)Nc3ccc(F)cc32)c(C)c1C(=O)NCCN(C)C
EC50 [2]: 12.6 µM | cytotoxicity at 24 h, 50 µM [3]: 98% | cytotoxicity at 24 h, 50 µM [4]: 70%

CCNCCNC(=O)c1c(C)[nH]c(/C=C2\C(=O)Nc3ccc(F)cc32)c1C
EC50 [2]: 13.6 µM | EC50 [5]: 15.5 µM | EC50 [6]: 12.9 µM | EC50 [7]: 11.9 µM

CCN(CC)CCCNC(=O)c1c(C)[nH]c(/C=C2\C(=O)Nc3ccc(F)cc32)c1C
EC50 [2]: 13.5 µM | EC50 [5]: 18 µM | cytotoxicity at 24 h, 50 µM [4]: 63%

CCN(CC)CCNC(=O)c1c(C)[nH]c(/C=C2\C(=O)Nc3ccc(CCNC(C)=O)cc32)c1C
cytotoxicity at 72 h, 50 µM [8]: 64% | cytotoxicity at 24 h, 50 µM [3]: 98% | cytotoxicity at 24 h, 50 µM [4]: 5% | cytotoxicity at 48 h, 50 µM [9]: 42%

Cc1[nH]c(/C=C2\C(=O)Nc3ccc(F)cc32)c(C)c1C(=O)O
inhibition [10]: 78% | inhibition [1]: 85%

CCc1ccc2c(c1)NC(=O)/C2=C\c1[nH]c(C)c(C(=O)NCCN(CC)CC)c1C
inhibition [10]: 70% | inhibition [1]: 90%

CCN(CC)CCNC(=O)c1c(C)[nH]c(/C=C2\C(=O)Nc3ccc(CCN=[N+]=[N-])cc32)c1C
EC50 [2]: 3.83 µM | EC50 [5]: 4.86 µM | cytotoxicity at 24 h, 50 µM [4]: 90% | EC50 [7]: 4.81 µM

CCN(CC)CCNC(=O)c1c(C)[nH]c(/C=C2\C(=O)Nc3cc(Cl)ccc32)c1C
cytotoxicity at 72 h, 1.56 µM [11]: 65% | EC50 [5]: 3.83 µM | EC50 [6]: 5.24 µM | EC50 [7]: 4.18 µM

CCN(CC)CCNC(=O)c1c(C)[nH]c(/C=C2\C(=O)Nc3cc(Br)ccc32)c1C
inhibition [10]: 89%

CCCNC(=O)c1c(C)[nH]c(/C=C2\C(=O)Nc3ccc(F)cc32)c1C
inhibition [10]: 30% | inhibition [1]: 48%

CCN(CC)CCNC(=O)c1c(C)[nH]c(/C=C2\C(=O)Nc3ccc(CCC(N)=O)cc32)c1C
inhibition [12]: 29.2% | inhibition [13]: Active | inhibition [14]: 29% | inhibition [15]: 64% | inhibition [16]: 0% | inhibition [17]: 18% | inhibition [18]: 14% | inhibition [19]: 41% | inhibition [20]: 0% | inhibition [21]: 19%

CNC(=O)c1ccccc1Oc1nc(Nc2cc(OC)c(OC)c(OC)c2)ncc1Br
IC50 [22]: 0.4 µM

CCN(CC)CCNC(=O)c1c(C)[nH]c(/C=C2\C(=O)Nc3ccc(C#N)cc32)c1C
cytotoxicity at 72 h, 50 µM [8]: 98% | EC50 [5]: 19.9 µM | cytotoxicity at 24 h, 50 µM [4]: 75% | EC50 [7]: 13.6 µM

CCN(CC)CCNC(=O)c1c(C)[nH]c(/C=C2\C(=O)Nc3ccc(CCC#N)cc32)c1C
inhibition [12]: 34.1% | EC50 [2]: 14.8 µM | EC50 [5]: 17.8 µM | cytotoxicity at 24 h, 50 µM [4]: 64% | EC50 [7]: 13.6 µM

CCN(CC)CCNC(=O)c1c(C)[nH]c(/C=C2\C(=O)N(C)c3ccc(F)cc32)c1C
inhibition [10]: 40% | inhibition [1]: 17% | EC50 [2]: 6.79 µM | EC50 [5]: 11.8 µM | EC50 [6]: 12.1 µM

CCN(CC)CCNC(=O)c1c(C)[nH]c(/C=C2\C(=O)Nc3cc(C(C)C)ccc32)c1C
inhibition [1]: 69%

CCN(CC)CCNC(=O)c1c(C)[nH]c(/C=C2\C(=O)Nc3cc(F)ccc32)c1C
EC50 [2]: 2.85 µM | cytotoxicity at 24 h, 50 µM [3]: 98% | cytotoxicity at 24 h, 50 µM [4]: 61% | EC50 [7]: 7.15 µM

CCN(CC)CCNC(=O)c1c(C)[nH]c(/C=C2\C(=O)Nc3ccc(CCO)cc32)c1C
inhibition [12]: 23.7% | inhibition [23]: Active | inhibition [14]: 49% | inhibition [15]: 35% | inhibition [17]: 24% | inhibition [24]: 42% | inhibition [19]: 54% | inhibition [20]: 28% | inhibition [21]: 55%
